From patent publication US20230278972A1, “SUBSTITUTED HALOALKYL SULFONANILIDE HERBICIDES” (FMC Corporation, priority 2020, published 2023)

What was measured:
Type in all cases: in vivo
[1] = test system: galium (catchweed bedstraw, Galium aparine); test: Test A postemergence, galium; conditions: Postemergence, 0 to 100 scale (0 no effect, 100 complete control); for Plant response rating, Galium: 125 g ai/ha, visual injury approx. 10 days; for Galium plant response rating: 500 g ai/ha, visual injury vs untreated controls after approx. 10 days
Summary of the method: (§1)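 Compounds in non-phytotoxic solvent with surfactant. Soil: loam/sand. Preemergence via directed soil spray after seeding; postemergence on seedlings 2–10 cm, one- to two-leaf.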

[2] = test system: pigweed (Amaranthus retroflexus); test: Test A postemergence, pigweed; conditions: Postemergence, 0 to 100 scale (0 no effect, 100 complete control); for Plant response rating, Pigweed: 125 g ai/ha, visual injury approx. 10 days; for Pigweed plant response rating: 500 g ai/ha, visual injury vs untreated controls after approx. 10 days
Summary of the method: (§2)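 Directed soil spray at planting gave the preemergence treatment, while foliar application to one- to two-leaf seedlings (2–10 cm) gave the postemergence one; pots held a loam and sand mixture and chemicals were carried in a non-phytotoxic solvent with surfactant.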

[3] = test system: ragweed (common ragweed, Ambrosia artemisiifolia); test: Test A preemergence, ragweed; conditions: Preemergence; for Ragweed plant response rating: 125 g ai/ha, visual injury on 0 to 100 scale (0 no effect, 100 complete control), approximately 10 days; for Plant response rating, Ragweed: 500 g ai/ha, 0 to 100 scale (0 no effect, 100 complete control)
Summary of the method: as §2

corn (Zea mays) = test: Test A postemergence, corn; conditions: Postemergence, 0 to 100 scale (0 no effect, 100 complete control); for Plant response rating, Corn: 125 g ai/ha, visual injury approx. 10 days; for Corn plant response rating: 500 g ai/ha, visual injury vs untreated controls after approx. 10 days
Summary of the method: as §2

[4] = test system: Foxtail, Giant (giant foxtail, Setaria faberi); test: Test A postemergence, Foxtail, Giant; conditions: Postemergence, 0 to 100 scale (0 no effect, 100 complete control); for Plant response rating, Foxtail, Giant: 125 g ai/ha, visual injury approx. 10 days; for Foxtail, Giant plant response rating: 500 g ai/ha, visual injury vs untreated controls after approx. 10 days
Summary of the method: as §2

[5] = test system: ragweed (common ragweed, Ambrosia artemisiifolia); test: Test A postemergence, ragweed; conditions: Postemergence, 0 to 100 scale (0 no effect, 100 complete control); for Plant response rating, Ragweed: 125 g ai/ha, visual injury approx. 10 days; for Ragweed plant response rating: 500 g ai/ha, visual injury vs untreated controls after approx. 10 days
Summary of the method: as §2

[6] = test system: barnyardgrass (Echinochloa crus-galli); test: Test A preemergence, barnyardgrass; conditions: Preemergence; for Barnyardgrass plant response rating: 125 g ai/ha, visual injury on 0 to 100 scale (0 no effect, 100 complete control), approximately 10 days; for Plant response rating, Barnyardgrass: 500 g ai/ha, 0 to 100 scale (0 no effect, 100 complete control)
Summary of the method: as §2

[7] = test system: pigweed (Amaranthus retroflexus); test: Test A preemergence, pigweed; conditions: for Pigweed plant response rating: 125 g ai/ha, visual injury on 0 to 100 scale (0 no effect, 100 complete control), approximately 10 days; for Plant response rating, Pigweed: 500 g ai/ha, 0 to 100 scale (0 no effect, 100 complete control)
Summary of the method: as §1

[8] = test system: Ryegrass, Italian (Italian ryegrass, Lolium multiflorum); test: Test A preemergence, Ryegrass, Italian; conditions: Preemergence; for Ryegrass, Italian plant response rating: 125 g ai/ha, visual injury on 0 to 100 scale (0 no effect, 100 complete control), approximately 10 days; for Plant response rating, Ryegrass, Italian: 500 g ai/ha, 0 to 100 scale (0 no effect, 100 complete control)
Summary of the method: as §2

[9] = test system: Ryegrass, Italian (Italian ryegrass, Lolium multiflorum); test: Test A postemergence, Ryegrass, Italian; conditions: Postemergence, 0 to 100 scale (0 no effect, 100 complete control); for Plant response rating, Ryegrass, Italian: 125 g ai/ha, visual injury approx. 10 days; for Ryegrass, Italian plant response rating: 500 g ai/ha, visual injury vs untreated controls after approx. 10 days
Summary of the method: as §2

[10] = test system: Foxtail, Giant (giant foxtail, Setaria faberi); test: Test A preemergence, Foxtail, Giant; conditions: Preemergence; for Foxtail, Giant plant response rating: 125 g ai/ha, visual injury on 0 to 100 scale (0 no effect, 100 complete control), approximately 10 days; for Plant response rating, Foxtail, Giant: 500 g ai/ha, 0 to 100 scale (0 no effect, 100 complete control)
Summary of the method: as §2

kochia (Bassia scoparia) [11] = test: Test A preemergence, kochia; conditions: Preemergence; for Kochia plant response rating: 125 g ai/ha, visual injury on 0 to 100 scale (0 no effect, 100 complete control), approximately 10 days; for Plant response rating, Kochia: 500 g ai/ha, 0 to 100 scale (0 no effect, 100 complete control)
Summary of the method: as §2

[12] = test system: blackgrass (Alopecurus myosuroides); test: Test A postemergence, blackgrass; conditions: Postemergence, 0 to 100 scale (0 no effect, 100 complete control); for Plant response rating, Blackgrass: 125 g ai/ha, visual injury approx. 10 days; for Blackgrass plant response rating: 500 g ai/ha, visual injury vs untreated controls after approx. 10 days
Summary of the method: as §2

kochia (Bassia scoparia) [13] = test: Test A postemergence, kochia; conditions: Postemergence, 0 to 100 scale (0 no effect, 100 complete control); for Plant response rating, Kochia: 125 g ai/ha, visual injury approx. 10 days; for Kochia plant response rating: 500 g ai/ha, visual injury vs untreated controls after approx. 10 days
Summary of the method: as §2

[14] = test system: wheat (Triticum aestivum); test: Test A postemergence, wheat; conditions: Postemergence, 0 to 100 scale (0 no effect, 100 complete control); for Plant response rating, Wheat: 125 g ai/ha, visual injury approx. 10 days; for Wheat plant response rating: 500 g ai/ha, visual injury vs untreated controls after approx. 10 days
Summary of the method: as §1

[15] = test system: barnyardgrass (Echinochloa crus-galli); test: Test A postemergence, barnyardgrass; conditions: Postemergence, 0 to 100 scale (0 no effect, 100 complete control); for Plant response rating, Barnyardgrass: 125 g ai/ha, visual injury approx. 10 days; for Barnyardgrass plant response rating: 500 g ai/ha, visual injury vs untreated controls after approx. 10 days
Summary of the method: as §1

SMILES	Plant response rating, Galium [1]	Galium plant response rating [1]	Plant response rating, Pigweed [2]	Pigweed plant response rating [2]	Ragweed plant response rating [3]	Plant response rating, Ragweed [3]	Plant response rating, Corn (corn (Zea mays))	Corn plant response rating (corn (Zea mays))	Plant response rating, Foxtail, Giant [4]	Foxtail, Giant plant response rating [4]	Plant response rating, Ragweed [5]	Ragweed plant response rating [5]	Barnyardgrass plant response rating [6]	Plant response rating, Barnyardgrass [6]	Pigweed plant response rating [7]	Plant response rating, Pigweed [7]	Ryegrass, Italian plant response rating [8]	Plant response rating, Ryegrass, Italian [8]	Plant response rating, Ryegrass, Italian [9]	Ryegrass, Italian plant response rating [9]	further results
CCn1nc(Cl)cc(-c2cc(NS(=O)(=O)C(F)(F)F)c(C)cc2C)c1=O [Compound 51]	40	60	60	80	60	90	0	20	30	80	50	80	100	100	80	90	90	100	70	80	Foxtail, Giant plant response rating [10]: 100; Plant response rating, Foxtail, Giant [10]: 100; Kochia plant response rating (kochia (Bassia scoparia) [11]): 80; Plant response rating, Kochia (kochia (Bassia scoparia) [11]): 90; Plant response rating, Blackgrass [12]: 20; Blackgrass plant response rating [12]: 70; Plant response rating, Kochia (kochia (Bassia scoparia) [13]): 10; Kochia plant response rating (kochia (Bassia scoparia) [13]): 60; Plant response rating, Wheat [14]: 50; Wheat plant response rating [14]: 60; Plant response rating, Barnyardgrass [15]: 30; Barnyardgrass plant response rating [15]: 80
CCn1nc(C)cc(-c2cc(N(S(=O)(=O)C(F)(F)F)S(=O)(=O)C(F)(F)F)c(C)cc2C)c1=O [Compound 52]	60	80	30	50	10	60	0	0	0	80	30	60	100	100	50	90	90	90	20	40	Foxtail, Giant plant response rating [10]: 100; Plant response rating, Foxtail, Giant [10]: 100; Kochia plant response rating (kochia (Bassia scoparia) [11]): 70; Plant response rating, Kochia (kochia (Bassia scoparia) [11]): 90; Plant response rating, Blackgrass [12]: 0; Blackgrass plant response rating [12]: 80; Plant response rating, Kochia (kochia (Bassia scoparia) [13]): 30; Kochia plant response rating (kochia (Bassia scoparia) [13]): 80; Plant response rating, Wheat [14]: 60; Wheat plant response rating [14]: 70; Plant response rating, Barnyardgrass [15]: 0; Barnyardgrass plant response rating [15]: 80
COC(=O)N(c1cc(-c2ccnn(C)c2=O)c(C)cc1C)S(=O)(=O)C(F)(F)F [Compound 53]	50	80	0	0	0	40	0	0	0	0	20	20	0	0	0	0	0	0	0	0	Foxtail, Giant plant response rating [10]: 0; Plant response rating, Foxtail, Giant [10]: 0; Kochia plant response rating (kochia (Bassia scoparia) [11]): 0; Plant response rating, Kochia (kochia (Bassia scoparia) [11]): 0; Plant response rating, Blackgrass [12]: 0; Blackgrass plant response rating [12]: 0; Plant response rating, Kochia (kochia (Bassia scoparia) [13]): 0; Kochia plant response rating (kochia (Bassia scoparia) [13]): 0; Plant response rating, Wheat [14]: 0; Wheat plant response rating [14]: 0; Plant response rating, Barnyardgrass [15]: 0; Barnyardgrass plant response rating [15]: 0
COc1cnn(-c2cc(NS(=O)(=O)C(F)(F)F)c(C)cc2C)c(=O)c1 [Compound 54]	60	90	40	70	50	90	0	10	0	0	80	90	0	0	40	90	0	20	40	40	Foxtail, Giant plant response rating [10]: 0; Plant response rating, Foxtail, Giant [10]: 10; Kochia plant response rating (kochia (Bassia scoparia) [11]): 60; Plant response rating, Kochia (kochia (Bassia scoparia) [11]): 90; Plant response rating, Blackgrass [12]: 0; Blackgrass plant response rating [12]: 0; Plant response rating, Kochia (kochia (Bassia scoparia) [13]): 60; Kochia plant response rating (kochia (Bassia scoparia) [13]): 80; Plant response rating, Wheat [14]: 0; Wheat plant response rating [14]: 0; Plant response rating, Barnyardgrass [15]: 0; Barnyardgrass plant response rating [15]: 10
CCn1nccc(-c2cc(NS(=O)(=O)C(F)(F)F)c(C)cc2F)c1=O [Compound 55]	90	90	20	70	20	90	0	50	20	90	20	40	0	100	70	90	70	90	50	60	Foxtail, Giant plant response rating [10]: 60; Plant response rating, Foxtail, Giant [10]: 100; Kochia plant response rating (kochia (Bassia scoparia) [11]): 80; Plant response rating, Kochia (kochia (Bassia scoparia) [11]): 80; Plant response rating, Blackgrass [12]: 0; Blackgrass plant response rating [12]: 20; Plant response rating, Kochia (kochia (Bassia scoparia) [13]): 60; Kochia plant response rating (kochia (Bassia scoparia) [13]): 80; Plant response rating, Wheat [14]: 20; Wheat plant response rating [14]: 70; Plant response rating, Barnyardgrass [15]: 30; Barnyardgrass plant response rating [15]: 40
CC(=O)N(c1cc(-c2ccnn(C)c2=O)c(C)cc1C)S(=O)(=O)C(F)(F)F [Compound 56]	90	90	40	40	70	90	10	80	90	90	60	90	100	100	40	90	100	100	0	80	Foxtail, Giant plant response rating [10]: 0; Plant response rating, Foxtail, Giant [10]: 20; Kochia plant response rating (kochia (Bassia scoparia) [11]): 40; Plant response rating, Kochia (kochia (Bassia scoparia) [11]): 100; Plant response rating, Blackgrass [12]: 50; Blackgrass plant response rating [12]: 50; Plant response rating, Kochia (kochia (Bassia scoparia) [13]): 50; Kochia plant response rating (kochia (Bassia scoparia) [13]): 60; Plant response rating, Wheat [14]: 50; Wheat plant response rating [14]: 70; Plant response rating, Barnyardgrass [15]: 90; Barnyardgrass plant response rating [15]: 90
Cc1cc(C)c(-c2ccnn(CC(F)(F)F)c2=O)cc1NS(=O)(=O)C(F)(F)F [Compound 57]	80	90	0	50	40	70	30	80	30	90	0	30	100	100	50	80	90	90	30	90	Foxtail, Giant plant response rating [10]: 100; Plant response rating, Foxtail, Giant [10]: 100; Kochia plant response rating (kochia (Bassia scoparia) [11]): 60; Plant response rating, Kochia (kochia (Bassia scoparia) [11]): 60; Plant response rating, Blackgrass [12]: 0; Blackgrass plant response rating [12]: 70; Plant response rating, Kochia (kochia (Bassia scoparia) [13]): 0; Kochia plant response rating (kochia (Bassia scoparia) [13]): 20; Plant response rating, Wheat [14]: 60; Wheat plant response rating [14]: 70; Plant response rating, Barnyardgrass [15]: 40; Barnyardgrass plant response rating [15]: 90
